Legend:
[1] = published value; cited from earlier work
P-gp = experiment: uptake of [3H] MitoF into tissues after pretreatment with CsA; format: in vivo, female C57/BL6 mice; conditions: tissues 60 min later
Method: To assess the effects of co-administration of cyclosporin A (CsA) on the uptake of MitoF, female C57/BL6 mice (~ 20 g) were used. The mice were injected with CsA (Sandimmun, Novartis supplied as 50 mg/mL solution which was diluted 1:4 in sterile PBS and injected 100 μL at 50 mg/kg) IV by tail vein injection, or with PBS carrier, followed 30 min later with [^3H] MitoF (100 nmol) by IV tail vein injection and 60 min later the mice were killed and the tissues harvested. All procedures were approved by the University of Otago animal ethics committee.

[2] = test system: P-glycoprotein (Mdr1a/1b) and breast cancer resistance protein (Bcrp); experiment: tissue and blood content of [3H] TPP compound after IV injection, transgenic mice lacking ABC transporters, compared with wild type; conditions: for uptake into the brain, transgenic compared to wild type mice: radioactivity in brain over 20 h; for ratio of compound in the brain relative to the blood, transgenic versus WT: 5 h after IV injection of 100 nmol; for AUC for accumulation into the brain: transgenic mice
Method: (§1) For injection the mice were placed in a restraining tube and injected by the tail vein with 100 nmol [^3H] compound (~ 400–500 nCi) in 100 μL sterile phosphate buffered saline (PBS) supplemented with 10% DMSO. A sample of the [^3H] compound solution injected was retained to calculate the specific activity, which was subsequently used to determine the tissue contents of the compound. Two WT mice and two transgenic mice were injected for each compound for each time point. […] At the indicated times after injection, the mice were killed by cervical dislocation and a blood sample of ~ 100–200 μL was obtained by cardiac puncture. The organs were then removed, cleared of blood by cutting into pieces and rinsing with saline, transferred to pre-chilled Eppendorf tubes on ice, weighed and stored at − 80 °C until processing. The tissues taken were: heart, kidneys, liver, brain, skeletal muscle (gastrocnemius) and white adipose tissue (subcutaneous). […] The mice were monitored after injection to ensure no pathology or distress.
Tissues were thawed at room temperature and transferred to 50 mL Falcon tubes. Ice-cold methanol (~ 4 °C; 1 mL/100 mg tissue wet weight) was added to the tissue and the tissue homogenised using an Ultra Turrax homogeniser (2 × 30 s on ice). The homogenate was transferred in 1 mL batches to 1.5 mL Eppendorf tubes and centrifuged (10,000 ×g for 8 min at 4 °C). The methanol extract was decanted into a 20 mL glass scintillation vial (Wheaton) and the methanol evaporated under a stream of N2. Further ice-cold methanol (1 mL/100 mg) was added to the tissue homogenate pellets, vortexed for 1 min, centrifuged as above and the methanol extract decanted to a fresh 20 mL glass scintillation vial and evaporated. This procedure was repeated 3 more times to give 5 extracts per tissue sample. […] Scintillant (OptiPhase HiSafe II; 10 mL) was added to each vial, [^3H] DPM content measured in a scintillation counter (LKB Wallac 1217 Rackbeta) using appropriate quench corrections and the total amount of radioactivity per sample calculated. The specific activity of the injected [^3H] compound was then used to calculate the tissue content as mol compound/g wet weight tissue.

[3] = tissue and blood content of [3H] TPP compound after IV tail vein injection, wild type mice; conditions: 100 nmol IV; for uptake by adipose tissue / uptake by the heart / uptake by the kidneys: wild type and transgenic mice; for AUC for accumulation into the brain: WT mice
Method: as §1
Tissues were thawed at room temperature and transferred to 50 mL Falcon tubes. Ice-cold methanol (~ 4 °C; 1 mL/100 mg tissue wet weight) was added to the tissue and the tissue homogenised using an Ultra Turrax homogeniser (2 × 30 s on ice). The homogenate was transferred in 1 mL batches to 1.5 mL Eppendorf tubes and centrifuged (10,000 ×g for 8 min at 4 °C). The methanol extract was decanted into a 20 mL glass scintillation vial (Wheaton) and the methanol evaporated under a stream of N2. Further ice-cold methanol (1 mL/100 mg) was added to the tissue homogenate pellets, vortexed for 1 min, centrifuged as above and the methanol extract decanted to a fresh 20 mL glass scintillation vial and evaporated. This procedure was repeated 3 more times to give 5 extracts per tissue sample. […] Scintillant (OptiPhase HiSafe II; 10 mL) was added to each vial, [^3H] […] The specific activity of the injected [^3H] compound was then used to calculate the tissue content as mol compound/g wet weight tissue.

[4] = cited from earlier work
[5] = monitoring of mice after IV injection for pathology or distress; format: in vivo; conditions: 100 nmol IV
Method: as §1

[6] = test system: P-gp isoforms Mdr1a and Mdr1b; parameters: method as in PMID 19722701; conditions: cited from earlier work
[7] = 100 nmol IV, 1 to 48 h post injection
[8] = 100 nmol IV, 1 to 20 h post injection

uptake in the liver, transgenic mice compared to controls ([2]; 100 nmol IV)	uptake into the brain, transgenic compared to wild type mice ([2]; 100 nmol IV)	uptake by adipose tissue [3]	uptake by the heart [3]	SMILES	octan-1-ol/PBS partition coefficient [1]	uptake into heart, kidney and white adipose tissue, transgenic versus wild type mice ([2]; 100 nmol IV)	ratio of compound in the brain relative to the blood, transgenic versus WT [2]	uptake by the kidneys [3]	also measured
increase in the uptake	greater uptake into the brain	lower uptake	less extensive uptake	FCCCCCCCCCCC[P+](c1ccccc1)(c1ccccc1)c1ccccc1 [MitoF, Fluoroundecyltriphenylphosphonium]	740 ± 100	no difference	increased uptake	extensive uptake	effect of CsA on uptake into the brain, muscle, fat, heart or kidney (P-gp; CsA 50 mg/kg IV 30 min before 100 nmol [3H] MitoF IV): did not affect; effect of CsA on uptake into the liver (P-gp; CsA 50 mg/kg IV 30 min before 100 nmol [3H] compound IV): increase uptake; increase of brain AUC, transgenic versus WT [2, 7]: ~ 9 fold; AUC for accumulation into the brain [2, 7]: 16.6 nmol·h/g wet weight; AUC for accumulation into the brain ([3]; 1 to 48 h post injection): 1.9 nmol·h/g wet weight
not	no difference	lower uptake	less extensive uptake	C[P+](c1ccccc1)(c1ccccc1)c1ccccc1 [TPMP, methyltriphenylphosphonium, reference compound]	–	–	–	–	change of brain AUC, transgenic versus WT ([2]; 100 nmol IV, 1 to 5 h post injection): unchanged; AUC for accumulation into the brain ([3]; 1 to 5 h post injection): 0.87 nmol·h/g wet weight
–	–	–	–	c1ccc([P+](c2ccccc2)(c2ccccc2)c2ccccc2)cc1 [tetraphenylphosphonium cation, tetraphenylphosphonium]	–	–	–	–	effect of ablation of Mdr1a and Mdr1b on uptake across the BBB [6]: did not increase

SMILES	uptake in the liver, transgenic mice compared to controls ([2]; 100 nmol IV)	uptake into the brain, transgenic compared to wild type mice ([2]; 100 nmol IV)	uptake by adipose tissue [3]	uptake by the heart [3]	octan-1-ol/PBS partition coefficient [1]	uptake into heart, kidney and white adipose tissue, transgenic versus wild type mice ([2]; 100 nmol IV)	ratio of compound in the brain relative to the blood, transgenic versus WT [2]	uptake by the kidneys [3]	also measured
COC1=C(OC)C(=O)C(CCCCCCCCCC[P+](c2ccccc2)(c2ccccc2)c2ccccc2)=C(C)C1=O [MitoQ, mitoquinone]	increase in the uptake	greater uptake into the brain	lower uptake	less extensive uptake	2760	no difference	increased uptake	extensive uptake	effect of CsA on biliary excretion [4]: inhibited; proportion of an IV dose excreted by the biliary pathway ([4]; within 4 h): 25%; increase of brain AUC, transgenic versus WT [2, 8]: ~ 4 fold; AUC for accumulation into the brain [2, 8]: 2.3 nmol·h/g wet weight; toxicity of the injected amount [5]: non-toxic; AUC for accumulation into the brain ([3]; 1 to 20 h post injection): 0.6 nmol·h/g wet weight
